Measurements published in PMC8009417, “Selective killing of homologous recombination-deficient cancer cell lines by inhibitors of the RPA:RAD52 protein-protein interaction” (PLoS ONE, 2021).

Experiments:
[1] = target: T1, RPA:RAD52 protein-protein interaction (Homo sapiens, UniProt P43351); experiment: FluorIA (Fluorescence-based protein-protein Interaction Assay), GFP-RAD52 binding to plate-coated RPA; settings: polynomial curve fitting; 15 dose concentrations 0.03–500 μM, triplicate; RAD52(1–303) positive control; read-out: EC50 in FluorIA (inhibition of RPA:RAD52 PPI)
T1 construct: made in house
T1 sequence (P43351 1-418): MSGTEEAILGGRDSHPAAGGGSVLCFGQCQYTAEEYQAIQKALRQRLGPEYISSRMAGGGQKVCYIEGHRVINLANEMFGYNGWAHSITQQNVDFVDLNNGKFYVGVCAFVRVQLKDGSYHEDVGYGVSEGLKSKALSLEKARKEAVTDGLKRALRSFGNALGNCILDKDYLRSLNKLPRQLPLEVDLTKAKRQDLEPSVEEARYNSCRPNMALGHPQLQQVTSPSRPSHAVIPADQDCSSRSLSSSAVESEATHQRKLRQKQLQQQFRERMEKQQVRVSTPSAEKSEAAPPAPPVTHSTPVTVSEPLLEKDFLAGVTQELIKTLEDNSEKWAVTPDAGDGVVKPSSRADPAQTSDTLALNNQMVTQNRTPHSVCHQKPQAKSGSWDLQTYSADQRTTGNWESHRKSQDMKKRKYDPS
Description: A newly developed fluorescence-based assay for detecting protein-protein interactions, FluorIA was used to identify SMIs of RPA:RAD52 PPI. The detailed FluorIA protocol is published elsewhere. Briefly, 384-well plates (Thermo Fisher Scientific, #460518) were coated with purified RPA. Then compounds or controls were added and incubated with freshly prepared GFP-RAD52. RAD52(1–303) without GFP-tag and buffer (including DMSO) only were used as controls. Then the relative fluorescence (RFU) was measured using a POLARstar OPTIMA plate reader (BMG LABTECH) on emptied plates at an excitation/emission (for eGFP) of 485/520 nm at 2500 gain setting.
Three chemical libraries the 355-member SelleckChem Kinase Inhibitor Library, the 1200-member Prestwick Chemical Library, and the 100,000-member ChemBridge library were used for the screening. The screening of the SelleckChem Kinase Inhibitor and the Prestwick libraries were performed at 10 and 100 μM each in duplicate. The screening of the ChemBridge library was conducted at 100 μM. […] The statistical criteria for a hit were fully described in Al-Mugotir et al.. Each hit was verified in triplicate at 10 and 100 μM.
The in vitro EC50 value of each hit was determined with FluorIA. The chemicals were serially diluted by two-fold increments from 0.030 to 500 μM and analyzed in triplicate with FluorIA. RAD52(1–303) was used as a positive control and buffer with DMSO was used as a negative control. Candidate SMIs with strong inhibition were purchased, and a 1D NMR analysis was carried out to verify their identities. The eleven candidates SMIs were purchased as follows: 5137134, 5246481, 52614577,5316833, 5373030, and 7623574 from Chembridge HIT2LEAD, 5989499 from Wuxi lab network, 5375405 from Aronis, quinacrine and mitoxantrone from Sigma Aldrich, and doxorubicin from LC labs. D-I03 was purchased from Molport. Their effectiveness in inhibiting the RPA:RAD52 PPI was confirmed after purchase with the FluorIA as described above (S1 Fig).
Supplementary file pone.0248941.s001.tif: S1 Fig Validation experiments of eleven hits with the FlourIA. Sixteen treatment concentrations were used (0.030–500 μM) increasing by two-fold increments of each molecule/drug obtained as a hit in HTS FluorIA. RAD52(1–303) without GFP-tag and buffer (including DMSO) only were used as controls. Percent inhibition was calculated as follows: [(RFUSMI—RFURAD52(1–303)) / (RFUDMSO—RFURAD52(1–303))]*100, where RFU is relative fluorescence unit. An average of triplicate measurements was used. The treatment points for quinacrine and doxorubicin beyond 125 μM were showing characteristics of aggregation and were not used. (TIF) Click here for additional data file.

[2] = system: BRCA1-deficient UWB1.289 ovarian cancer cells (BRCA1-); experiment: Cell viability assay (PrestoBlue, 72 h), UWB1.289; assay type: cell-based; settings: Homo sapiens, UWB1289, estimated from the graphs
Source text: BRCA1-deficient UWB1.289 cells corrected with wild-type BRCA1 gene (BRCA1+; closed triangle) and parental BRCA1-deficient UWB1.289 (BRCA1-; closed circle). Two PARPi-resistant cell lines derived from UWB1.289, UWB1.289.SYr12 (closed diamond) and UWB1.SYr13 (X), were also examined.
UWB1.289 (a gift from Dr. Lee Zou, Harvard Medical School, Boston, MA) were derived from a serous ovarian carcinoma with a germline BRCA1 mutation and a deletion of the wild-type allele. […] Two PARP-resistant cell lines, SYr12 and SYr13, were derived from the UWB1.289. The Mammary Epithelial growth media, along with SupplementMix solution for UWB1 cell lines, were obtained from PromoCell GmbH and mixed as described.
Cells were seeded 5 x 10^3 cells per well in 96-well plates in a 90 μL volume per well one day before treatment. Cells in 96-well plates were incubated with increasing concentrations of the compound or vehicle control (1% DMSO) for 72 hours. Each treatment plate contained nine concentrations of a compound in sextuplicate. Growth inhibition was determined using PrestoBlue reagent (Life Technologies, #A13261). Fluorescent measurements were taken using a Spectramax M5 plate reader (MDS). To assess cells’ replication in the absence of compounds as a control, six wells on each plate were treated with vehicle to be read in triplicate at the initial treatment day (T0) and at 72-hour read (T100).

[3] = system: T2, RPA:RAD52 PPI in U2OS cells; experiment: Size exclusion chromatography and co-immunoprecipitation of RAD52 with RPA from treated cells; assay type: cell-based; settings: 3 nM, 24 hours, preliminary experiments
T2 construct: endogenous in cells; host or cells: U2OS
Description: (A) RAD52 was co-immunoprecipitated with RPA in the fractions 5, 8, and 10 in the control experiment. The elution positions of the molecular weight standards, thyroglobulin (669 kDa), apoferritin (443 kDa), beta-amylase (200 kDa), and bovine serum albumin (66 kDa), are indicated below the western blot.
U2OS cells (10^6 cells) were seeded in a 100 mm dish and grown overnight. The cells were treated with the indicated concentrations of mitoxantrone (MTX) for 24 hours. The cell lysate was prepared in 100 μl of lysis buffer (PBS with 0.5% NP40, 0.5% Triton X100, 1 mM DTT, protease and phosphatase inhibitors, and 10% glycerol). After mixing with 100 μl cold PBS, the lysate was incubated with 100 μl of DEAE sepharose (GE Life Sciences) for 2 hours at 4°C with rotation. An unbound fraction from DEAE sepharose (~200 μl) was diluted with 200 μl of PBS and half of the mixture was fractionated with Superdex200 (GE Life Sciences) using PBS as elution buffer. Each fraction was incubated with anti-RPA (p32) antibody conjugated with biotin (NeoMarkers, MS-691-B0) at 4°C overnight, then incubated with Streptavidin-magnetic beads (Promega #Z5481) for one hour at 4°C with rotation. […] RAD52 and RPA (p32) were detected by western blotting with anti-RAD52 antibody (LS-C42570, LSBio) and anti-RPA2 antibody (A300-244A, Bethyl Laboratories), respectively.

O=C1c2c(O)ccc(O)c2C(=O)c2c(NCCNCCO)ccc(NCCNCCO)c21 [Mitoxantrone, mitoxantrone] was tested, and the EC50 [1] was 29.7 µM, the EC50 [2] was 0.2 µM and the “Effect on RPA:RAD52 PPI in cells (co-immunoprecipitation of RAD52 with RPA)” value [3] was “disrupts the RPA:RAD52 PPI in cells”.
